Test results taken from patent US9434724B2, “Quinuclidines for modulating alpha 7 activity” (priority 2014, dated 2016).
Where two headings read alike, the source gives them in different places.

Columns and labels:
[1] = target: rat brain nicotinic receptor (α7 NAChR) (Rattus norvegicus (Rat), UniProt Q05941); type: binding
[2] = Metabolic stability assay in human liver microsomes (HLM); type: in vitro ADME; conditions: 1 μM
Method: (§1) Protocol 1: Studies were carried out in human and rat liver microsomes (“HLM” and “RLM,” respectively). Human and rat liver microsomes were purchased from BD Gentest. DMSO stocks were prepared for the test compounds. Aliquots of the DMSO solutions were diluted to 0.5 mM by acetonitrile, then further diluted by liver microsomes/buffer to 1.5 μM. 30 μL of 1.5 μM solutions were mixed with 15 μL of 6 mM NADPH, which had been pre-warmed to 37° C., at a final test compound concentration of 1 μM. The plates were kept in a 37° C. water bath for the duration of the experiment. At each time point (0, 5, 15, 30, 45 minutes), 135 μL of acetonitrile was added into corresponding wells. After the final time point was sampled, the plates were shaken at a vibrator (IKA, MTS 2/4) for 10 min (600 rpm/min) and then centrifuged at 5594 g for 15 min (Thermo Multifuge×3R). Aliquots of the supernatant were removed, diluted 1:1 into distilled water, and analyzed by LC-MS/MS. The peak area response ratio to internal standard (PARR) of the compounds at 5, 15, 30, 45 minutes was compared to the PARR at time 0 to determine the percent of test compound remaining at each time point. Half-lives were calculated using Excel software, fitting to a single-phase exponential decay equation.
(§2) Protocol 2: Studies were carried out in human and rat liver microsomes. Buffer solutions were prepared as follows: Buffer A: 1.0 L of 0.1 M monobasic Potassium Phosphate buffer containing 1.0 mM EDTA; Buffer B: 1.0 L of 0.1 M Dibasic Potassium Phosphate buffer containing 1.0 mM EDTA; Buffer C: 0.1 M Potassium Phosphate buffer, 1.0 mM EDTA, pH 7.4 by titrating 700 mL of buffer B with buffer A while monitoring with a pH meter.
(§3) Reference compound (Ketanserin) and test compound spiking solutions were prepared as follows: 500 μM spiking solution: add 10 μL of 10 mM DMSO stock solution into 190 μL ACN; 1.5 μM spiking solution in microsomes (0.75 mg/mL): add 1.5 μL of 500 μM spiking solution and 18.75 μL of 20 mg/mL liver microsomes into 479.75 μL of Buffer C.
(§4) NADPH stock solution (6 mM) was prepared by dissolving NADPH into buffer C.
(§5) Assay procedure: 30 μL of 1.5 μM spiking solution containing 0.75 mg/mL microsomes solution was dispensed to the wells designated for […]. The plate was pre-incubated at 37° C. for 10 minutes. 15 μL of NADPH stock solution (6 mM) was added to the wells designated as Time 45, and the timer was started. At 30 mM, 15 mM, and 5 mM, 15 μL NADPH stock solution (6 mM) was added to the wells, respectively. At the end of incubation (0 mM), 135 μL of ACN containing IS was added to all the wells. Then 15 μL of NADPH stock solution (6 mM) was added to the wells designated as Time 0. After quenching, the reaction mixtures were centrifuged at 3220 g for […]. Following centrifugation, 50 μL of the supernatant was transferred from each well into a 96-well sample plate containing 50 μL of ultra-pure water (Millipore) for LC/MS analysis. The peak area response (PARR) ratio to internal standard of the compounds at 5, 15, 30, and 45 minutes was compared to the PARR at time 0 to determine the percent of test compound remaining at each time point. Half-lives were calculated using Excel software, fitting to a single-phase exponential decay equation.

[3] = Metabolic stability assay in rat liver microsomes (RLM); type: in vitro ADME; conditions: 1 μM
Method: as §1, §2, §3, §4, §5

Human plasma stability = type: in vitro ADME; conditions: plasma
Method: Protocol 1: Studies were carried out in human plasma. All plasma was obtained from Bioreclamation and collected on sodium heparin. Plasma was adjusted to pH 7.4. A DMSO stock was first prepared for the test compound. An aliquot of the DMSO solution was dosed into 1 mL of plasma, which had been pre-warmed to 37° C., at a final test compound concentration of 1 μM. The vials were kept in a benchtop Thermomixer® for the duration of the experiment. Aliquots (100 μL) were taken at each time point (0, 15, 30, 60, and 120 minutes) and added to 96-well plates which had been pre-filled with 300 μL of acetonitrile. Samples were stored at 4° C. until the end of the experiment. After the final time point was sampled, the plate was mixed and then centrifuged at 3,000 rpm for 10 minutes. Aliquots of the supernatant were removed, diluted 1:1 into distilled water, and analyzed by LC-MS/MS. The peak area response ratio to internal standard (PARR) of the compound at 15, 30, 60 and 120 minutes was compared to the PARR at time 0 to determine the percent of test compound remaining at each time point. Half-lives were calculated using GraphPad software, fitting to a single-phase exponential decay equation.
Protocol 2: Studies were carried out in plasma. Plasma was prepared under approval of IRB and IACUC on sodium heparin. The pH of plasma was monitored and used within the range of pH 7.4 to pH 8.0. DMSO stocks were prepared for the test compounds. Aliquots of the DMSO solutions were diluted to 0.05 mM by 0.05 mM Sodium phosphate buffer with 0.5% BSA. Then 10 μL of 0.05 mM solutions were dosed into 90 μL of plasma in duplicates (n=2), which had been pre-warmed to 37° C., at a final test compound concentration of 5 μM. The plates were kept in a 37° C. water bath for the duration of the experiment. At each time point (0, 5, 15, 30, 45, 60, and 120 minutes), 400 μL of acetonitrile was added into corresponding wells. After the final time point was sampled, the plates were shaken at the vibrator (IKA, MTS 2/4) for 10 min (600 rpm/min) and then centrifuged at 5594 g for 15 min (Thermo Multifuge×3R). Aliquots of the supernatant were removed, diluted 1:1 into distilled water, and analyzed by LC-MS/MS. The peak area response ratio to internal standard (PARR) of the compounds at 5, 15, 30, 45, 60, and 120 minutes was compared to the PARR at time 0 to determine the percent of test compound remaining at each time point. Half-lives were calculated using Excel software, fitting to a single-phase exponential decay equation.

CYP1A2 = CYP1A2 (Homo sapiens (Human), UniProt P05177); experiment: Cytochrome P450 inhibition in human liver microsomes, CYP1A2
CYP2C9 = CYP2C9 (Homo sapiens (Human), UniProt P11712); experiment: Cytochrome P450 inhibition in human liver microsomes, CYP2C9
CYP2C19 = CYP2C19 (Homo sapiens (Human), UniProt P33261); experiment: Cytochrome P450 inhibition in human liver microsomes, CYP2C19
CYP3A4 = CYP3A4 (Homo sapiens (Human), UniProt P08684); experiment: Cytochrome P450 inhibition in human liver microsomes, CYP3A4
[4] = read-out: 2C19 IC50, Protocol 2

Sequence of CYP2C9 (P11712 whole entry): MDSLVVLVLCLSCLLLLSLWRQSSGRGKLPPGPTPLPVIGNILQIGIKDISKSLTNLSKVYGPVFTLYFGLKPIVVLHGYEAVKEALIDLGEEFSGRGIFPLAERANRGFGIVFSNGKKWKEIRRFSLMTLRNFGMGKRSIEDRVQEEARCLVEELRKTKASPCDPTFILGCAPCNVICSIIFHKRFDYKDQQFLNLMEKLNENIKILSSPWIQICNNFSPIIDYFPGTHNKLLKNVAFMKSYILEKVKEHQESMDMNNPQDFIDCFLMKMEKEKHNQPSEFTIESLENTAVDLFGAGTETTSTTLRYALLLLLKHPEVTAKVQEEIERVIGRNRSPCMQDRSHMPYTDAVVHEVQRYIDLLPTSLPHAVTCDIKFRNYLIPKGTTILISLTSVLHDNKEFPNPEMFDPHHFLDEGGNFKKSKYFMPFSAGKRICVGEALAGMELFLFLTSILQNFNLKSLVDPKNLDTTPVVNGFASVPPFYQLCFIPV
Sequence of CYP3A4 (P08684 whole entry): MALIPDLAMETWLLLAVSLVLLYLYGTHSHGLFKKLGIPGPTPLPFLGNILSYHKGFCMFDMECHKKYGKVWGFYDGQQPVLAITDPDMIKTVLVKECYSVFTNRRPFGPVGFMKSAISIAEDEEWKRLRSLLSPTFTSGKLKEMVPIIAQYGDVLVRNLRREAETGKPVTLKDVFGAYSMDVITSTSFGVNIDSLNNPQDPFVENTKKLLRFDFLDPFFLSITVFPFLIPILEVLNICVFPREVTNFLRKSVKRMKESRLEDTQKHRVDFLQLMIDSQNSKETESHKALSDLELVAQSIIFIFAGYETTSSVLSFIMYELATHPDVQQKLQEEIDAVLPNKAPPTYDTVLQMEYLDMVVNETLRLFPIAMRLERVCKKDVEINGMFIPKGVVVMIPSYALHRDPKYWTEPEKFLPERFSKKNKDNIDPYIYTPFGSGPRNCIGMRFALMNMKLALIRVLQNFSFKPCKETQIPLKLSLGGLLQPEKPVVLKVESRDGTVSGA
Sequence of rat brain nicotinic receptor (α7 NAChR) (Q05941 23-502 limits assumed): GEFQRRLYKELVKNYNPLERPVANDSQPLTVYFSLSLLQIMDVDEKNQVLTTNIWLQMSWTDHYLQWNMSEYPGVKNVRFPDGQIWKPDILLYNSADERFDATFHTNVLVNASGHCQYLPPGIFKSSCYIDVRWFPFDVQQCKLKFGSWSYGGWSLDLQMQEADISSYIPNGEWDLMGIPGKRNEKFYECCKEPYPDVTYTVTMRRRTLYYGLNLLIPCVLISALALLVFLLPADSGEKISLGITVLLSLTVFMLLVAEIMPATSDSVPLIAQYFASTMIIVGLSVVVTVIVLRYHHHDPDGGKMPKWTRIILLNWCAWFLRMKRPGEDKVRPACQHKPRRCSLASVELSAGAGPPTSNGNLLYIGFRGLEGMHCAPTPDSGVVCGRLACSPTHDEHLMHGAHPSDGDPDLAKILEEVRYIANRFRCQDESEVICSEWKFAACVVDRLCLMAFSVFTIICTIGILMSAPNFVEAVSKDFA
Sequence of CYP1A2 (P05177 whole entry): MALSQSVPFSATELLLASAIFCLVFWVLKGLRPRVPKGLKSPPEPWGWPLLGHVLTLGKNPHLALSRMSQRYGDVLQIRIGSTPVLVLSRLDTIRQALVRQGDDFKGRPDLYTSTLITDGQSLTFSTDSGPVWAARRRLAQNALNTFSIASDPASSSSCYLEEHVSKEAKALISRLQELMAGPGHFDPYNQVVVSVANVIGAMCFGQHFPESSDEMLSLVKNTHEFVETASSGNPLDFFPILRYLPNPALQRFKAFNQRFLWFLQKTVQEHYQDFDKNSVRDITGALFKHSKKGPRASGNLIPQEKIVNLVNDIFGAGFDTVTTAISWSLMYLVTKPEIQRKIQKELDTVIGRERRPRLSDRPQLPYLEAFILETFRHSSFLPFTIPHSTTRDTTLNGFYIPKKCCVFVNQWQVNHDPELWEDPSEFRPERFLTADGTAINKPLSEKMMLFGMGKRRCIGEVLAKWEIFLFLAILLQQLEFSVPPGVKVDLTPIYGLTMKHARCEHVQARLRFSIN
Sequence of CYP2C19 (P33261 whole entry): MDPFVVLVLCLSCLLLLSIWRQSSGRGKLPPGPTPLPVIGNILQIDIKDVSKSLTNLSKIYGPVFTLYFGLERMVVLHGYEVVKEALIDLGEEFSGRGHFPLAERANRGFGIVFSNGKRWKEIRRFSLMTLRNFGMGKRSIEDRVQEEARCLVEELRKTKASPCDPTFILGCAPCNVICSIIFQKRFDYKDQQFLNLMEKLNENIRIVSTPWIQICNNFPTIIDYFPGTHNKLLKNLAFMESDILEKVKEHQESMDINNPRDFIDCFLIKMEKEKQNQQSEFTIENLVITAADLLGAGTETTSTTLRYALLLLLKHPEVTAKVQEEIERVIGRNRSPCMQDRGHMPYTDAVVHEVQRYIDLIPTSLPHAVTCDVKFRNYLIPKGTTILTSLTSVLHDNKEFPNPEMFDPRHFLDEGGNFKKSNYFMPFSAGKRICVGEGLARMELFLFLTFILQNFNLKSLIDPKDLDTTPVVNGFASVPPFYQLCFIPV

Structure (SMILES) | IC50 [1] [nM] | Ki [1] [nM] | HLM ([2]; human, microsomes, pH 7.4) [mL/min/kg] | RLM ([3]; rat, microsomes, pH 7.4) [mL/min/kg] | % Remaining @ 2 h (Human plasma stability; human, 2 h, 1 μM, pH 7.4) [%] | half-life at 1 μM (Human plasma stability; human, pH 7.4) [min] | IC50 (CYP1A2; read-out: 1A2 IC50, Protocol 2) [nM] | IC50 (CYP2C9; read-out: 2C9 IC50, Protocol 2) [nM] | IC50 (CYP2C19; [4]) [nM] | IC50 (CYP3A4; read-out: 3A4 IC50 (Midazolam), substrate midazolam, Protocol 2) [nM] | HLM ([2]; Protocol No. 1, human liver microsomes) [mL/min/kg] | RLM ([3]; Protocol No. 1, rat liver microsomes) [mL/min/kg] | % Remaining @ 2 h (Human plasma stability; Protocol No. 2, 5 μM, 37° C.) [%] | IC50 (CYP3A4; read-out: 3A4 IC50 (Midazolam), substrate midazolam, Protocol 1) [nM] | IC50 (CYP3A4; read-out: 3A4 IC50 (Testosterone), substrate testosterone, Protocol 1) [nM] | IC50 (CYP1A2; read-out: 1A2 IC50, Protocol 1) [nM] | IC50 (CYP2C9; read-out: 2C9 IC50, Protocol 1) [nM] | IC50 (CYP2C19; read-out: 2C19 IC50, Protocol 1) [nM]
O=C(OCC12CCN(CC1)CC2)c1c[nH]c2ccccc12 [Compound 1, quinuclidin-4-ylmethyl 1H-indole-3-carboxylate] | 31.8 | 27.6 | <13.608 | 105.84 | 11 | 38.5 | > 10000 | > 10000 | > 10000 |  |  |  |  |  |  |  |  | 
COc1ccc2c(C(=O)OCC34CCN(CC3)CC4)c[nH]c2c1 [Compound 10, quinuclidin-4-ylmethyl 6-methoxy-1H-indole-3-carboxylate] |  |  | <13.608 | 36.72 |  | > 120 | > 10000 |  |  |  |  |  |  |  |  |  |  | 
O=C(OCC12CCN(CC1)CC2)c1c[nH]c2cc(F)ccc12 [Compound 11, quinuclidin-4-ylmethyl 6-fluoro-1H-indole-3-carboxylate] | 261 | 228 | <13.608 | 97.6892 |  |  | > 10000 |  |  | > 10000 |  |  |  |  |  |  |  | 
O=C(OCC12CCN(CC1)CC2)c1c[nH]c2ccc(F)cc12 [Compound 12, quinuclidin-4-ylmethyl 5-fluoro-1H-indole-3-carboxylate] | 86.5 | 75.1 | <13.608 | 208.73 | 31 | 73.8 | > 10000 | > 10000 | > 10000 |  |  |  |  |  |  |  |  | 
O=C(OCC12CCN(CC1)CC2)c1c[nH]c2ccc(O)cc12 [Compound 15, quinuclidin-4-ylmethyl 5-hydroxy-1H-indole-3-carboxylate] | 153 | 132 | <13.608 | 25.92 |  |  | > 10000 | > 10000 | > 10000 |  |  |  |  |  |  |  |  | 
COc1cccc2c(C(=O)OCC34CCN(CC3)CC4)c[nH]c12 [Compound 16, quinuclidin-4-ylmethyl 7-methoxy-1H-indole-3-carboxylate] | 1400 | 1210 | <13.608 | 82.6672 |  |  | > 10000 | > 10000 | > 10000 |  |  |  |  |  |  |  |  | 
COc1ccc2c(C(=O)OCC34CCN(CC3)CC4)c[nH]c2c1 [Compound 17, quinuclidin-4-ylmethyl 6-methoxy-1H-indole-3-carboxylate] | 376 | 329 | <13.608 | 38.1652 |  |  | > 10000 |  |  |  |  |  |  |  |  |  |  | 
COc1ccc2[nH]cc(C(=O)OCC34CCN(CC3)CC4)c2c1 [Compound 18, quinuclidin-4-ylmethyl 5-methoxy-1H-indole-3-carboxylate] | 32.6 | 28.3 | <13.608 | 47.8757 | 5.8 | 29.2 | > 10000 | > 10000 | > 10000 |  |  |  |  |  |  |  |  | 
Cc1ccc2[nH]cc(C(=O)OCC34CCN(CC3)CC4)c2c1 [Compound 20, quinuclidin-4-ylmethyl 5-methyl-1H-indole-3-carboxylate] | 68.1 | 60.1 | <13.608 | 276.124 | 14 | 41.2 | > 10000 |  |  |  |  |  |  |  |  |  |  | 
N#Cc1ccc2c(C(=O)OCC34CCN(CC3)CC4)c[nH]c2c1 [Compound 28, quinuclidin-4-ylmethyl 6-cyano-1H-indole-3-carboxylate] |  |  | <13.608 | 28.4342 | 79 | > 120 | > 10000 | > 10000 | > 10000 |  |  |  |  |  |  |  |  | 
COc1ccc2[nH]cc(C(=O)OCC34CCN(CC3)CC4)c2c1C [Compound 34, quinuclidin-4-ylmethyl 5-methoxy-4-methyl-1H-indole-3-carboxylate] | 23.6 | 20.4 | <13.608 | 125.64 | 55 | > 120 | > 10000 | > 10000 | > 10000 |  |  |  |  |  |  |  |  | 
COc1cccc2[nH]cc(C(=O)OCC34CCN(CC3)CC4)c12 [Compound 36, quinuclidin-4-ylmethyl 4-methoxy-1H-indole-3-carboxylate] | 48.9 | 42.3 | <13.608 | 52.02 | 2.5 | 28 | > 10000 |  |  |  |  |  |  |  |  |  |  | 
Cl.O=C(OCC12CCN(CC1)CC2)c1c[nH]c2cc(Cl)c(F)cc12 [Compound 52, Quinuclidin-4-ylmethyl 6-chloro-5-fluoro-1H-indole-3-carboxylate hydrochloride] |  |  |  |  |  |  |  |  |  |  | 4.003 | 345.506 | 85.8425 | > 10000 | > 10000 | > 10000 | > 10000 | > 10000
